Laboratory results published in the PolyMetriX glass transition set.
± gives the standard deviation of the reports.

Row | SMILES | glass transition temperature
1 | *CCCCCCOC(=O)NCCCCCCNC(=O)O* (repeat unit) | 168.00 °C
2 | *CC(*)c1nnn[nH]1 (repeat unit) | 72.00 °C
3 | *c1c(C)cc(C(c2cccnc2)c2cc(C)c(N3C(=O)CC(Nc4ccc(NC5CC(=O)N(*)C5=O)cc4)C3=O)c(C)c2)cc1C (repeat unit) | 231.00 °C
4 | *CCCC(=O)N* (repeat unit) | 62.80 °C
5 | *CC(*)C(=O)O (repeat unit) [Poly(acrylic acid)] | 105 ± 7.3 °C
6 | *c1c(C)cc(-c2cc(C)c(N3C(=O)c4ccc(S(=O)(=O)c5ccc6c(c5)C(=O)N(*)C6=O)cc4C3=O)c(C)c2)cc1C (repeat unit) | 290.00 °C
7 | *CCC/C=C(/*)c1ccc(OC)cc1 (repeat unit) | 11.00 °C
8 | */C=C/C1CC(*)C(C(=O)OC)C1 (repeat unit) | 65.00 °C
9 | *Nc1cnc(*)s1 (repeat unit) | 139.00 °C
10 | *OC(COC(=O)Nc1ccc(Cc2ccc(NC(*)=O)cc2)cc1)c1ccco1 (repeat unit) | 40.00 °C
11 | *CCOCCOP(=O)(/N=N/c1ccc(-c2ccc(/N=N/P(=O)(O*)OC)cc2)cc1)OC (repeat unit) | 22.00 °C
12 | *CCCOC(=O)CCCCC(=O)O* (repeat unit) | -55.00 °C
13 | */C(=C(/*)c1cccc([Si](C)(C)C)c1)c1ccccc1 (repeat unit) | 200.00 °C
14 | *CC(CSC)O* (repeat unit) | -37.00 °C
15 | *CC(*)(C)C(=O)OC1CCC(C)CC1 (repeat unit) | 109.00 °C
16 | *c1ncnc(N(CCCCN(*)c2ccccc2)c2ccccc2)n1 (repeat unit) | 91.00 °C

Row | SMILES | glass transition temperature
17 | *c1ccc(-c2nc3ccc(Oc4ccc(Oc5ccc(P(=O)(c6ccccc6)c6ccc(Oc7ccc(Oc8ccc9nc(*)c(-c%10ccccc%10)nc9c8)cc7)cc6)cc5)cc4)cc3nc2-c2ccccc2)cc1 (repeat unit) | 248.00 °C
18 | *CCCCCCNC(=O)CCP(=S)(CCC(=O)N*)c1ccccc1 (repeat unit) | 43.00 °C
19 | *O[Si](*)(C)CCCC(=O)OCCCC (repeat unit) | -91.00 °C
20 | */C=C(\C#N)C(=O)OCCCCCCOC(=O)/C(C#N)=C/c1ccc2c(c1)c1cc(*)ccc1n2CCCCCCC (repeat unit) | 87.00 °C
21 | *C1C=CC(*)CC1 (repeat unit) | 125.50 °C
22 | */C=C/c1ccc(/C=C/[Si](C)(C)c2ccc([Si](*)(C)C)cc2)cc1 (repeat unit) | 63.00 °C
23 | *Oc1ccc(CC(NC(=O)CCc2ccc(OC(=O)COCC(*)=O)cc2)C(=O)OCCCCCCCCCCCC)cc1 (repeat unit) | 36.00 °C
24 | *CCCCCCCC(c1ccc(O)cc1)C(*)c1ccc(O)cc1C (repeat unit) | 4.00 °C
25 | *CC(*)(C)C(=O)OCCOCC[N+](CC)(CC)CCCCS(=O)(=O)O (repeat unit) | 95.00 °C
26 | *CCCCCCOC(=O)OCCCCCCOC(=O)OCCCCCCn1c(=O)c2cc3c(=O)n(*)c(=O)c3cc2c1=O (repeat unit) | 17.00 °C
27 | *CC(*)(C)C(=O)OCCCCCCN1CCN(c2ccc(/N=N/c3ccc(C=C(C#N)C#N)cc3)cc2)CC1 (repeat unit) | 83.00 °C
28 | *CC(*)OC(F)(C(F)(F)F)C(F)(F)F (repeat unit) | 65.00 °C
29 | *CC(*)C(=O)NC(C)(C)CC(C)=O (repeat unit) | 72.50 °C
30 | *CCCCP(C)(=O)CCCNC(=O)CCCCC(=O)N* (repeat unit) | 59.00 °C
31 | *CC(=O)NCCCCCCNC(=O)Cc1ccc(O*)cc1 (repeat unit) | 69.50 °C

Next, values leading:

Row | glass transition temperature | SMILES
32 | 365.50 °C | *c1ccc(-c2cc(C(C)(C)C)c(Oc3ccc(N4C(=O)c5ccc(S(=O)(=O)c6ccc7c(c6)C(=O)N(*)C7=O)cc5C4=O)cc3C(F)(F)F)c(C(C)(C)C)c2)cc1 (repeat unit)
33 | 44.00 °C | *CCCCOC(=O)c1ccc(C(C)(C)c2ccc(C(=O)O*)cc2)cc1 (repeat unit)
34 | 270.00 °C | *CC(*)(C)C(=O)Oc1ccc(C(=O)c2ccccc2)c(O)c1 (repeat unit)
35 | 93.00 °C | *Oc1ccc(OC(=O)c2ccc(C(*)=O)cc2Oc2ccc(C(C)(C)c3ccccc3)cc2)cc1 (repeat unit)
36 | -13.00 °C | *CCCCCCOC(=O)OCCCCCCCCCCOC(=O)OCCCCCCOc1ccc(C(=O)c2ccc(O*)cc2)cc1 (repeat unit)
37 | 241.00 °C | *c1ccc(Oc2ccc(C3(c4ccc(Oc5ccc(N6C(=O)c7ccc(Oc8ccccc8Oc8ccc9c(c8)C(=O)N(*)C9=O)cc7C6=O)cc5C(F)(F)F)cc4)c4ccccc4-c4ccccc43)cc2)c(C(F)(F)F)c1 (repeat unit)
38 | 90.90 °C | *CC(OC(=O)Oc1ccc(C(=O)OC)cc1)C(COC(=O)O*)OC(=O)Oc1ccc(C(=O)OC)cc1 (repeat unit)
39 | 490.00 °C | *c1cc2c(cc1C)-c1cc(C)c(N3C(=O)c4ccc(-c5ccc6c(c5)C(=O)N(*)C6=O)cc4C3=O)cc1S2(=O)=O (repeat unit)
40 | 235.00 °C | *Oc1ccc(N(CC)c2ccc(/C=C(\C#N)C(=O)NC3CCCCC3NC(=O)/C(C#N)=C/c3ccc(N(CC)c4ccc(*)cc4)cc3)cc2)cc1 (repeat unit)
41 | 15.00 °C | *CC(*)C(=O)OCCCCCCCCOC(=O)c1ccc(OC(=O)c2ccc(C#N)cc2)cc1 (repeat unit)
42 | 215.00 °C | *Oc1ccc(Oc2ccc(OC(=O)c3ccc(C(c4ccc(C(*)=O)cc4)(C(F)(F)F)C(F)(F)F)cc3)cc2)cc1 (repeat unit)
43 | 358.00 °C | *C(=O)Nc1ccc(-c2ccc(NC(=O)c3ccc4c(c3)C(=O)N(c3ccc(Oc5ccc(N6C(=O)c7ccc(*)cc7C6=O)cc5-c5ccccc5)c(-c5ccccc5)c3)C4=O)cc2)cc1 (repeat unit)
44 | 336.50 ± 0.7 °C | *c1ccc2c(c1)C(=O)N(c1ccc(S(=O)(=O)c3ccc(N4C(=O)c5ccc(C(*)(C(F)(F)F)C(F)(F)F)cc5C4=O)cc3)cc1)C2=O (repeat unit)
45 | 256.00 °C | *c1ccc(C(c2ccc(N3C(=O)c4ccc(Oc5cc6ccccc6cc5Oc5ccc6c(c5)C(=O)N(*)C6=O)cc4C3=O)cc2)(C(F)(F)F)C(F)(F)F)cc1 (repeat unit)
46 | 107.80 °C | *Oc1ccc(C(C)(C)c2ccc(OC(=O)Oc3ccc(Cc4ccc(OC(*)=O)cc4)cc3)cc2)cc1 (repeat unit)
47 | 38.00 °C | *Oc1ccc(CC(NC(=O)Cc2ccc(OC(=O)CCCC(*)=O)cc2)C(=O)OCCCCCCCC)cc1 (repeat unit)
48 | 171.00 °C | *Oc1cccc2c(OC(=O)c3ccc(Oc4ccc(C(*)=O)cc4)cc3)cccc12 (repeat unit)

Row | glass transition temperature | SMILES
49 | 210.00 °C | *c1ccc2c(c1)C(=O)N(c1cc(OCCN(CC)c3ccc(/N=N/c4ccc([N+](=O)[O-])cc4)cc3)cc(N3C(=O)c4ccc(C(*)(C(F)(F)F)C(F)(F)F)cc4C3=O)c1)C2=O (repeat unit)
50 | 158.00 °C | *CCN(CCOC(=O)Nc1ccc(C)c(NC(=O)O*)c1)c1ccc(/N=N/c2ccc(-c3nc4ccc([N+](=O)[O-])cc4n3CC)cc2)cc1 (repeat unit)
51 | 34.00 °C | *CC(*)(C)C(=O)OCCCCOc1ccc(OC(=O)c2ccc(OCCCCCC)cc2)cc1 (repeat unit)
52 | 247.00 °C | *c1ccc(Oc2ccc(C(=O)c3cccc(C(=O)c4ccc(Oc5ccc(-n6c(=O)c7cc8c(=O)n(*)c(=O)c8cc7c6=O)cc5)cc4)c3)cc2)cc1 (repeat unit)
53 | 43.00 °C | *Oc1ccc(CC(NC(=O)CCc2ccc(OC(=O)CCCC(*)=O)cc2)C(=O)OCCCCCC)cc1 (repeat unit)
54 | 258.00 °C | *c1ccc(C(=O)Nc2ccc(Oc3ccc(S(=O)(=O)c4ccc(Oc5ccc(NC(=O)c6ccc(N7C(=O)c8ccc(-c9ccc%10c(c9)C(=O)N(*)C%10=O)cc8C7=O)cc6)cc5)cc4)cc3)cc2)cc1 (repeat unit)
55 | 266.00 °C | *c1ccc(Oc2ccc(C3(c4ccc(Oc5ccc(N6C(=O)c7ccc(Oc8ccc(C9(c%10ccc(Oc%11ccc%12c(c%11)C(=O)N(*)C%12=O)cc%10)CCC(C(C)(C)C)CC9)cc8)cc7C6=O)cc5)cc4)C4CC5CC(C4)CC3C5)cc2)cc1 (repeat unit)
56 | 122.00 °C | *CCCCCCCCCCC(=O)Nc1ccc(Oc2ccc(Oc3ccc(NC(=O)CCCCCCCCCCN4C(=O)c5ccc(C(=O)c6ccc7c(c6)C(=O)N(*)C7=O)cc5C4=O)cc3)cc2)cc1 (repeat unit)
57 | 96.00 °C | *O[Si](*)(C)CCc1cc(C(=O)Oc2ccc(OCCCC)cc2)ccc1-c1ccc(C(=O)Oc2ccc(OCCCC)cc2)cc1 (repeat unit)
58 | 38.00 °C | *CC(*)(C)C(=O)OCCCCCOc1ccc(OC(=O)c2ccc(OC)cc2)cc1 (repeat unit)
59 | 72.00 °C | *CC(*)(C)C(=O)Oc1ccc(C(=O)Oc2ccc(C(=O)c3ccccc3)cc2)cc1 (repeat unit)
60 | 267.50 °C | *Nc1cc(NC(=O)c2ccc(C(*)=O)cc2)cc(-c2nc3ccccc3[nH]2)c1 (repeat unit)
61 | 230.00 °C | *c1cc(C(=O)Oc2ccc(-c3ccc(O[Si](C)(C)C(C)(C)C)cc3)cc2)cc(N2C(=O)c3ccc(-c4ccc5c(c4)C(=O)N(*)C5=O)cc3C2=O)c1 (repeat unit)
62 | 250.00 °C | *C(=O)Nc1ccc(Oc2ccc(NC(=O)c3ccc4c(c3)C(=O)N(C3CCC(CC5CCC(N6C(=O)c7ccc(*)cc7C6=O)CC5)CC3)C4=O)cc2)cc1 (repeat unit)
63 | 45.00 °C | *CCOc1ccc(C(=O)OC(=O)c2ccc(O*)cc2)cc1 (repeat unit)
64 | 212.00 °C | *Oc1ccc(C2(c3ccc(Oc4ccc(C(=O)c5cccc(-c6cccc(C(=O)c7ccc(*)cc7)c6)c5)cc4)cc3)c3ccccc3-c3ccccc32)cc1 (repeat unit)
65 | 324.60 °C | *c1ccc(Oc2ccc(C(=O)c3cccc(C(=O)c4ccc(Oc5ccc(-n6c(=O)c7cc8c(=O)n(*)c(=O)c8cc7c6=O)cc5)cc4)n3)cc2)cc1 (repeat unit)
